According to patent US9073855B2, “BCL-2 selective apoptosis-inducing agents for the treatment of cancer and immune diseases” (AbbVie Inc., priority 2008, dated 2015):

Legend:
GST-Bcl-2 = GST-Bcl-2 (Homo sapiens, UniProt P10415); experiment: TR-FRET binding assay, GST-Bcl-2 with F-Bak peptide probe; conditions: TR-FRET Binding Affinity, GST-Bcl-2, F-Bak peptide probe
Method in brief: (§1)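 Displacement of a fluorescein-labelled Bak peptide from the GST-tagged protein was followed by time-resolved FRET with a terbium anti-GST donor after 3 h incubation at room temperature. Inhibition constants were calculated with Wang's equation.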

GST-Bcl-XL = GST-Bcl-XL (Homo sapiens, UniProt Q07817); experiment: TR-FRET binding assay, GST-Bcl-XL with F-Bak peptide probe; conditions: TR-FRET Binding Affinity, GST-Bcl-XL, F-Bak peptide probe
Method in brief: as §1

FL5.12/Bcl-2 cells = experiment: FL5.12/Bcl-2 cell viability assay under IL-3 withdrawal (CellTitre Glo); assay type: cell-based, murine; conditions: Mus musculus, IL-3 withdrawn 48 hrs, then 24 hrs with compound
Method in brief: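 Bcl-2-overexpressing murine FL5.12 transfectants underwent IL-3 removal for 48 hrs before a 24 hr compound treatment. Cell viability was quantified with CellTitre Glo.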

GST-Bcl-XL, sequence (Q07817 whole entry): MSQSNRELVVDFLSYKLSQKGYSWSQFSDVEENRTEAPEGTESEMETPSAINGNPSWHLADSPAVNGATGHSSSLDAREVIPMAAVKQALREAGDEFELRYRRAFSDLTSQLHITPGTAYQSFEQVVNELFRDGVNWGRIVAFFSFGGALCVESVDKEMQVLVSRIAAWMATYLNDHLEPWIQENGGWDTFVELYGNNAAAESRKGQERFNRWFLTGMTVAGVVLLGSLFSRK
GST-Bcl-2, sequence (P10415 whole entry): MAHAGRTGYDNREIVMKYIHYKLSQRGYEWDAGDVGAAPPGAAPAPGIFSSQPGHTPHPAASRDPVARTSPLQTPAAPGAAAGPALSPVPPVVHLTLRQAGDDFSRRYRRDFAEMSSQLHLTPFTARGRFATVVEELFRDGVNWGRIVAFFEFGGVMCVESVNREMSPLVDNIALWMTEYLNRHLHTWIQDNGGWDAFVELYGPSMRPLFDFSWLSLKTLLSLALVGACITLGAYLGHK

Structure (SMILES)	Ki (GST-Bcl-2) [nM]	Ki (GST-Bcl-XL) [nM]	EC50 (FL5.12/Bcl-2 cells) [nM]
CC(C)(C)c1ccc(CN2CCN(c3ccc(C(=O)NS(=O)(=O)c4ccc(NC5CCN(C6CCOCC6)CC5)c([N+](=O)[O-])c4)c(Oc4ccc5[nH]ccc5c4)c3)CC2)c(-c2ccc(Cl)cc2)c1 [Example 359, 4-{4-[(5-tert-butyl-4′-chloro-1,1′-biphenyl-2-yl)methyl]piperazin-1-yl}-2-(1H-indol-5-yloxy)-N-({3-nitro-4-[(1-tetrahydro-2H-pyran-4-ylpiperidin-4-yl)amino]phenyl}sulfonyl)benzamide]	13.5	> 660	> 500
Cn1cncc1CNc1ccc(S(=O)(=O)NC(=O)c2ccc(N3CCN(CC4=C(c5ccc(Cl)cc5)CC(C)(C)CC4)CC3)cc2Oc2ccc3[nH]ccc3c2)cc1[N+](=O)[O-] [Example 360, 4-(4-{[2-(4-chlorophenyl)-4,4-dimethylcyclohex-1-en-1-yl]methyl}piperazin-1-yl)-2-(1H-indol-5-yloxy)-N-[(4-{[(1-methyl-1H-imidazol-5-yl)methyl]amino}-3-nitrophenyl)sulfonyl]benzamide]	0.228	144	106
CC1(C)CCC(CN2CCN(c3ccc(C(=O)NS(=O)(=O)c4ccc(S(=O)(=O)N5CCOCC5)cc4)c(Oc4ccc5[nH]ccc5c4)c3)CC2)=C(c2ccc(Cl)cc2)C1 [Example 361, 4-(4-{[2-(4-chlorophenyl)-4,4-dimethylcyclohex-1-en-1-yl]methyl}piperazin-1-yl)-2-(1H-indol-5-yloxy)-N-{[4-(morpholin-4-ylsulfonyl)phenyl]sulfonyl}benzamide]	7.13	> 660	> 500
CC1(C)CCC(CN2CCN(c3ccc(C(=O)NS(=O)(=O)c4ccc(NN5CCS(=O)(=O)CC5)c([N+](=O)[O-])c4)c(Oc4ccc5[nH]ccc5c4)c3)CC2)=C(c2ccc(Cl)cc2)C1 [Example 362, 4-(4-{[2-(4-chlorophenyl)-4,4-dimethylcyclohex-1-en-1-yl]methyl}piperazin-1-yl)-N-({4-[(1,1-dioxidothiomorpholin-4-yl)amino]-3-nitrophenyl}sulfonyl)-2-(1H-indol-5-yloxy)benzamide]	0.082	290	171
CC1(C)CCC(CN2CCN(c3ccc(C(=O)NS(=O)(=O)c4ccc(NC5CCC(N6CCOCC6)CC5)c([N+](=O)[O-])c4)c(Oc4ccc5[nH]ccc5c4)c3)CC2)=C(c2ccc(Cl)cc2)C1 (stereo not drawn) [Example 363, 4-(4-{[2-(4-chlorophenyl)-4,4-dimethylcyclohex-1-en-1-yl]methyl}piperazin-1-yl)-2-(1H-indol-5-yloxy)-N-({4-[(4-morpholin-4-ylcyclohexyl)amino]-3-nitrophenyl}sulfonyl)benzamide]	0.18	> 660	86.9
CC1(C)CCC(CN2CCN(c3ccc(C(=O)NS(=O)(=O)c4cnc(OCC5CCOCC5)c(Br)c4)c(Oc4cccc5[nH]ccc45)c3)CC2)=C(c2ccc(Cl)cc2)C1 [Example 364, N-{[5-bromo-6-(tetrahydro-2H-pyran-4-ylmethoxy)pyridin-3-yl]sulfonyl}-4-(4-{[2-(4-chlorophenyl)-4,4-dimethylcyclohex-1-en-1-yl]methyl}piperazin-1-yl)-2-(1H-indol-4-yloxy)benzamide]	0.006	76	185
CC1(C)CCC(CN2CCN(c3ccc(C(=O)NS(=O)(=O)c4cnc(NCC5CCOCC5)c(-c5nccs5)c4)c(Oc4cccc5[nH]ccc45)c3)CC2)=C(c2ccc(Cl)cc2)C1 [Example 365, 4-(4-{[2-(4-chlorophenyl)-4,4-dimethylcyclohex-1-en-1-yl]methyl}piperazin-1-yl)-2-(1H-indol-4-yloxy)-N-{[6-[(tetrahydro-2H-pyran-4-ylmethyl)amino]-5-(1,3-thiazol-2-yl)pyridin-3-yl]sulfonyl}benzamide]	1.08	> 660	> 500
CC1(C)CCC(CN2CCN(c3ccc(C(=O)NS(=O)(=O)c4ccc(NCC5CCOCC5)c(C#N)c4)c(Oc4cccc5[nH]ccc45)c3)CC2)=C(c2ccc(Cl)cc2)C1 [Example 366, 4-(4-{[2-(4-chlorophenyl)-4,4-dimethylcyclohex-1-en-1-yl]methyl}piperazin-1-yl)-N-({3-cyano-4-[(tetrahydro-2H-pyran-4-ylmethyl)amino]phenyl}sulfonyl)-2-(1H-indol-4-yloxy)benzamide]	5.46	> 660	> 500
CC1(C)CCC(CN2CCN(c3ccc(C(=O)NS(=O)(=O)c4ccc(NCC5CCOCC5)c(C#N)c4)c(Oc4ccc5[nH]ccc5c4)c3)CC2)=C(c2ccc(Cl)cc2)C1 [Example 367, 4-(4-{[2-(4-chlorophenyl)-4,4-dimethylcyclohex-1-en-1-yl]methyl}piperazin-1-yl)-N-({3-cyano-4-[(tetrahydro-2H-pyran-4-ylmethyl)amino]phenyl}sulfonyl)-2-(1H-indol-5-yloxy)benzamide]	4.61	> 660	> 500
CC(C)(C)CCNc1ccc(S(=O)(=O)NC(=O)c2ccc(N3CCN(CC4=C(c5ccc(Cl)cc5)CC(C)(C)CC4)CC3)cc2Oc2ccc3[nH]ccc3c2)cc1[N+](=O)[O-] [Example 368, 4-(4-{[2-(4-chlorophenyl)-4,4-dimethylcyclohex-1-en-1-yl]methyl}piperazin-1-yl)-N-({4-[(3,3-dimethylbutyl)amino]-3-nitrophenyl}sulfonyl)-2-(1H-indol-5-yloxy)benzamide]	> 1200	> 660	> 500
CC(C)C[C@@H](CO)Nc1ccc(S(=O)(=O)NC(=O)c2ccc(N3CCN(CC4=C(c5ccc(Cl)cc5)CC(C)(C)CC4)CC3)cc2Oc2ccc3[nH]ccc3c2)cc1[N+](=O)[O-] [Example 369, 4-(4-{[2-(4-chlorophenyl)-4,4-dimethylcyclohex-1-en-1-yl]methyl}piperazin-1-yl)-N-[(4-{[(1S)-1-(hydroxymethyl)-3-methylbutyl]amino}-3-nitrophenyl)sulfonyl]-2-(1H-indol-5-yloxy)benzamide]	838	> 660	> 500
CC1(C)CCC(CN2CCN(c3ccc(C(=O)NS(=O)(=O)c4ccc(NC[C@H]5CCCO5)c([N+](=O)[O-])c4)c(Oc4ccc5[nH]ccc5c4)c3)CC2)=C(c2ccc(Cl)cc2)C1 [Example 370, 4-(4-{[2-(4-chlorophenyl)-4,4-dimethylcyclohex-1-en-1-yl]methyl}piperazin-1-yl)-2-(1H-indol-5-yloxy)-N-[(3-nitro-4-{[(2R)-tetrahydrofuran-2-ylmethyl]amino}phenyl)sulfonyl]benzamide]	0.904	> 660	263
CC(C)[C@H](CO)Nc1ccc(S(=O)(=O)NC(=O)c2ccc(N3CCN(CC4=C(c5ccc(Cl)cc5)CC(C)(C)CC4)CC3)cc2Oc2ccc3[nH]ccc3c2)cc1[N+](=O)[O-] [Example 371, 4-(4-{[2-(4-chlorophenyl)-4,4-dimethylcyclohex-1-en-1-yl]methyl}piperazin-1-yl)-N-[(4-{[(1R)-1-(hydroxymethyl)-2-methylpropyl]amino}-3-nitrophenyl)sulfonyl]-2-(1H-indol-5-yloxy)benzamide]	8.38	> 660	> 500
COc1ccc(Nc2ccc(S(=O)(=O)NC(=O)c3ccc(N4CCN(CC5=C(c6ccc(Cl)cc6)CC(C)(C)CC5)CC4)cc3Oc3ccc4[nH]ccc4c3)cc2[N+](=O)[O-])cc1 [Example 372, 4-(4-{[2-(4-chlorophenyl)-4,4-dimethylcyclohex-1-en-1-yl]methyl}piperazin-1-yl)-2-(1H-indol-5-yloxy)-N-({4-[(4-methoxyphenyl)amino]-3-nitrophenyl}sulfonyl)benzamide]	> 1200	> 660	> 500
CC1(C)CCC(CN2CCN(c3ccc(C(=O)NS(=O)(=O)c4ccc(NCCCN5CCCC5=O)c([N+](=O)[O-])c4)c(Oc4ccc5[nH]ccc5c4)c3)CC2)=C(c2ccc(Cl)cc2)C1 [Example 374, 4-(4-{[2-(4-chlorophenyl)-4,4-dimethylcyclohex-1-en-1-yl]methyl}piperazin-1-yl)-2-(1H-indol-5-yloxy)-N-[(3-nitro-4-{[3-(2-oxopyrrolidin-1-yl)propyl]amino}phenyl)sulfonyl]benzamide]	2.27	> 660	> 500
CC1(C)CCC(CN2CCN(c3ccc(C(=O)NS(=O)(=O)c4ccc(Nc5ccc(O)cc5)c([N+](=O)[O-])c4)c(Oc4ccc5[nH]ccc5c4)c3)CC2)=C(c2ccc(Cl)cc2)C1 [Example 375, 4-(4-{[2-(4-chlorophenyl)-4,4-dimethylcyclohex-1-en-1-yl]methyl}piperazin-1-yl)-N-({4-[(4-hydroxyphenyl)amino]-3-nitrophenyl}sulfonyl)-2-(1H-indol-5-yloxy)benzamide]	11.3	> 660	> 500
CC1(C)CCC(CN2CCN(c3ccc(C(=O)NS(=O)(=O)c4ccc(NCCc5ccc(S(N)(=O)=O)cc5)c([N+](=O)[O-])c4)c(Oc4ccc5[nH]ccc5c4)c3)CC2)=C(c2ccc(Cl)cc2)C1 [Example 376, N-{[4-({2-[4-(aminosulfonyl)phenyl]ethyl}amino)-3-nitrophenyl]sulfonyl}-4-(4-{[2-(4-chlorophenyl)-4,4-dimethylcyclohex-1-en-1-yl]methyl}piperazin-1-yl)-2-(1H-indol-5-yloxy)benzamide]	22.4	> 660	> 500
